In patent publication US20220378816A1, “2-BENZYLIDENE HYDRAZINOADENOSINE COMPOUNDS HAVING A2A ADENOSINE RECEPTOR AGONISTIC ACTIVITY” (ACADEMY OF MILITARY MEDICAL SCIENCES, priority 2019, published 2022):
Where two headings read alike, the source gives them in different places.

What was measured:
[1] = molecular target: T1, (human) A2A adenosine receptors (Homo sapiens, UniProt P29274); experiment: Radioligand binding test ([3H]CGS21680 displacement, hA2A HEK-293 cell membranes); conditions: for Ki: read-out: Ki (inhibition constant)
T1 construct: purchased PerkinElmer Research Products (Boston, Mass.); host or cells: HEK-293
Procedure: Cell membranes stably transfected with (human) A2A adenosine receptors were prepared in HEK-293 cells. The cell membranes were obtained from PerkinElmer Research Products (Boston, Mass.).
The A2A adenosine receptors used were all expressed in the cell membranes. […] (final 25 nM) was added to the diluted cell membrane, and mixed well. 50 μL of the prepared dilution solution of cell membrane was transferred to the 384-well Opti-plate containing compound and incubated at 25° C. for 90 minutes. 100 μL of 0.5% Polyethyleneimine solution (PEI) was added to […]-96 GF/B filter plate, and soaked for 90 minutes at 4° C., then 500 μL of washing buffer/well (50 mM Tris-HCl pH 7.4, 154 mM NaCl) was transferred with Cell Harvester to wash the […]-96 GF/B filter plate twice. The mixed system in the Opti-plate was transferred to the washed […]-96 GF/B filter plate, 500 μL of washing buffer/well (50 mM Tris-HCl pH 7.4, 154 mM NaCl) was used to wash the […]-96 GF/B filter plate 9 times. Incubation was performed in 37° C. incubator for 3 minutes. 40 μL of ULTIMA GOLD scintillation solution (Perkin Elmer, Cat #77-16061) was added to each well, CPM (count per minute) value was read by a MicroBeta liquid scintillation counter (PerkinElmer).

[2] = molecular target: human adenosine receptor A2A (Homo sapiens, UniProt P29274); experiment: Adenosine receptor A2A cAMP test (LANCE Ultra cAMP, hADORA2A-HEK293 cells); assay type: cell-based; conditions: for hA2AAR agonist function: cAMP test
Text: Experimental reagents and consumables: DMEM/F12, G418, Penicillin-Streptomycin, Versene Solution, HEPES, Hank's Buffered Saline Solution, PBS (pH 7.4, 1×, sterile), FBS, BSA Stabilizer 7.5%, Rolipram, NECA were separately purchased from Gibico, Hyclone and Sigma. LANCE® Ultra cAMP kit (Eu-cAMP tracer, Ulight-anti-cAMP reagent, cAMP detection buffer) and hADORA2A-HEK293 cells were purchased from PerkinElmer Research Products (Boston, Mass.). All other reagents were of analytical grade and obtained from commercial sources. 384-well polypropylene microplate and 384-well solid white plate were purchased from Labcyte and Corning, respectively.
The cells stably expressing human adenosine receptor A2A (hADORA2A-HEK293 cells) were cultured in DMEM/F12 medium containing 10% FBS, 1×Penicillin-Streptomycin and 400 μg/ml G418 in a 37° C. and 5% CO2 environment. Before the experiment, the cells were digested with Versene solution, and the cells were collected by centrifugation at 200 g and room temperature for 5 minutes, and finally resuspended with assay buffer (Hank's buffered saline solution, containing 5 mM HEPES, 0.1% BSA stabilizer and 10 μM Rolipram, pH 7.4). The TECAN automated liquid handling workstation was used to dilute the compound in a 384-well polypropylene microplate with DMSO to 11 concentration points in a 3-fold gradient to prepare the compound source plate, in which the 11 concentration points of the compound were 10 mM, 3.33 mM, 1.11 mM., 0.3 7mM, 0.1 2 mM, 0.041 mM, 0.013 mM, 4.57×10^−3 mM, 1.52×10^−3 mM, 5×10^−4 mM and 1.7×10^−4 mM. The Echo Acoustic Liquid Handler (Labcyte) was used to transfer the test compound from the compound source plate to an assay plate, in which the transfer volume of the compound was 10 nl/well. The hADORA2A-HEK293 cell suspension was diluted with assay buffer to 30,000 cells/ml, and the cell suspension was transferred to the assay plate at a volume of 10 μl/well (300 cells/well). The assay plate was centrifuged at 150 g for 1 minute and pre-incubated at room temperature for 30 minutes. The Eu-cAMP tracer working solution (Eu-cAMP tracer 40 μl, cAMP detection buffer 1.96 ml) (5 μl/well) was added to the assay plate, and then the Ulight-anti-cAMP working solution (13 μl of Ulight-anti-cAMP reagent and 1.95 ml of cAMP detection buffer) (5 µl/well) was added to the assay plate. The assay plate was rotated at 150 g for 30 seconds and incubated at room temperature for 30 minutes. The EnVision multimode plate reader (PerkinElmer) was used determine the level of cyclic adenosine monophosphate in the final solution (λex=320 nm, λem=665 nm & 615 nm). The EC50 (nM) value of the compound interacting with the A2A adenosine receptor to stimulate the production of cyclic adenosine monophosphate was calculated and the A2A receptor agonist titer of the compound was expressed as the EC50 (nM) value.

[3] = calculated from IC50 by Cheng and Prusoff equation, [S] 25 nM, Km […] nM

T1 sequence (P29274 whole entry): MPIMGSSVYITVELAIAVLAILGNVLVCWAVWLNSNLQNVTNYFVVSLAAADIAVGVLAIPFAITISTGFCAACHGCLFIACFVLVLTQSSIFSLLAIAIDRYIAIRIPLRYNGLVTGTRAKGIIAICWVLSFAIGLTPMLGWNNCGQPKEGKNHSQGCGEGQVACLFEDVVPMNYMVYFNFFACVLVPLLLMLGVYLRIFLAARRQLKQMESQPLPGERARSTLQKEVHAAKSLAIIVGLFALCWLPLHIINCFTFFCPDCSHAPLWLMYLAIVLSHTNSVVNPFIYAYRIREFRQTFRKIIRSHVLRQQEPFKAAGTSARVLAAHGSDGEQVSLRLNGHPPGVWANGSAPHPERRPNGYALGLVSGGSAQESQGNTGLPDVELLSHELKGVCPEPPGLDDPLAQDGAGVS
Sequence of human adenosine receptor A2A (P29274 whole entry): as above

Row | SMILES | IC50 [1] [nM] | Ki [1, 3] [nM] | melting point [°C] | hA2AAR agonist function [2] | EC50 ([2]; stimulating production of cyclic AMP, hADORA2A-HEK293 cells) [nM] | Ki [1] [nM]
1 | CC(=O)Nc1ccc(/C=N/Nc2nc(N)c3ncn([C@@H]4O[C@H](CO)[C@@H](O)[C@H]4O)c3n2)cc1 [Compound 1, N-{4-{(E)-{2-{6-amino-9-[(2R,3R,4S,5R)-3,4-dihydroxy-5-(hydroxymethyl)tetrahydrofuran-2-yl]-9H-purin-2-yl}hydrazono}methyl}phenyl}acetamide] | 2840 | 1330 | 126 |  |  | 
2 | Nc1nc(N/N=C/c2ccc(OCc3ccccc3)c(OCc3ccccc3)c2)nc2c1ncn2[C@@H]1O[C@H](CO)[C@@H](O)[C@H]1O [Compound 2, (2R,3R,4S,5R)-2-{6-amino-2-{2-[(E)-3,4-bis(benzyloxy)benzylidene]hydrazino}-9H-purin-9-yl}-5-(hydroxymethyl)tetrahydrofuran-3,4-diol] | 3.9 | 1.8 | 220 | shown as hA2AAR agonists | 0.64 | 
3 | Nc1nc(N/N=C/c2ccc(C(F)(F)F)cc2C(F)(F)F)nc2c1ncn2[C@@H]1O[C@H](CO)[C@@H](O)[C@H]1O [Compound 3, (2R,3R,4S,5R)-2-{6-amino-2-{2-[(E)-2,4-bis(trifluoromethyl)benzylidene]hydrazino}-9H-purin-9-yl}-5-(hydroxymethyl)tetrahydrofuran-3,4-diol] | > 10000 |  | 239 |  |  | 
4 | Nc1nc(N/N=C/c2ccc(N(c3ccccc3)c3ccccc3)cc2)nc2c1ncn2[C@@H]1O[C@H](CO)[C@@H](O)[C@H]1O [Compound 4, (2R,3R,4S,5R)-2-{6-amino-2-{2-[(E)-4-(diphenylamino)benzylidene]hydrazino}-9H-purin-9-yl}-5-(hydroxymethyl)tetrahydrofuran-3,4-diol] | 142 | 66.7 | 184 |  |  | 
5 | Nc1nc(N/N=C/c2cccc(OCc3ccccc3)c2)nc2c1ncn2[C@@H]1O[C@H](CO)[C@@H](O)[C@H]1O [Compound 6, (2R,3R,4S,5R)-2-{6-amino-2-{2-[(E)-3-(benzyloxy)benzylidene] hydrazino}-9H-purin-9-yl}-5-(hydroxymethyl)tetrahydrofuran-3,4-diol] | 369 | 173 | 148 |  |  | 
6 | Nc1nc(N/N=C/c2ccc(Cl)c(C(F)(F)F)c2)nc2c1ncn2[C@@H]1O[C@H](CO)[C@@H](O)[C@H]1O [Compound 7, (2R,3R,4S,5R)-2-{6-amino-2-{2-[(E)-4-chloro-3-(trifluoromethyl)benzylidene]hydrazino}-9H-purin-9-yl}-5-(hydroxymethyl)tetrahydrofuran-3,4-diol] | 1710 | 801 | 242 |  |  | 
7 | Nc1nc(N/N=C/c2ccc(-c3ccccn3)cc2)nc2c1ncn2[C@@H]1O[C@H](CO)[C@@H](O)[C@H]1O [Compound 8, (2R,3R,4S,5R)-2-{6-amino-2-{2-[(E)-4-(pyridin-2-yl)benzylidene] hydrazino}-9H-purin-9-yl}-5-(hydroxymethyl)tetrahydrofuran-3,4-diol] | 445 | 208 | 164 |  |  | 
8 | Nc1nc(N/N=C/c2ccc(-c3ccccc3)cc2)nc2c1ncn2[C@@H]1O[C@H](CO)C(O)C1O (some centres unmarked) [Compound 9] |  |  | 234 | shown as hA2AAR agonists |  | 
9 | Nc1nc(N/N=C/c2ccc(N3CCCC3)cc2)nc2c1ncn2[C@@H]1O[C@H](CO)[C@@H](O)[C@H]1O [Compound 10, (2R,3R,4S,5R)-2-{6-amino-2-{2-[(E)-4-(pyrrolidin-1-yl)benzylidene]hydrazino}-9H-purin-9-yl}-5-(hydroxymethyl)tetrahydrofuran-3,4-diol] | > 10000 |  | 174 |  |  | 
10 | Nc1nc(N/N=C/c2ccc(C(F)(F)F)cc2)nc2c1ncn2[C@@H]1O[C@H](CO)[C@@H](O)[C@H]1O [Compound 11, (2R,3R,4S,5R)-2-{6-amino-2-{2-[(E)-4-(trifluoromethyl)benzylidene]hydrazino}-9H-purin-9-yl)-5-(hydroxymethyl)tetrahydrofuran-3,4-diol] | 131 | 61.3 | 260 |  |  | 
11 | Nc1nc(N/N=C/c2ccc(-n3ccnc3)cc2)nc2c1ncn2[C@@H]1O[C@H](CO)[C@@H](O)[C@H]1O [Compound 12, (2R,3R,4S,5R)-2-{2-{2-[(E)-4-(1H-imidazol-1-yl)benzylidene]hydrazino}-6-amino-9H-purin-9-yl}-5-(hydroxymethyl)tetrahydrofuran-3,4-diol] | 462 | 216 | 276 |  |  | 
12 | CCCOc1ccc(/C=N/Nc2nc(N)c3ncn([C@@H]4O[C@H](CO)C(O)C4O)c3n2)cc1 (stereo partly drawn) [Compound 13, (2R,3R,45,5R)-2-{6-amino-2-{2-[(E)-4-propoxybenzylidene]hydrazino}-9H-purine-9-yl}-5-(hydroxymethyl)tetrahydrofuran-3,4-diol] | 479 |  | 218 |  |  | 224
13 | N#Cc1ccccc1/C=N/Nc1nc(N)c2ncn([C@@H]3O[C@H](CO)C(O)C3O)c2n1 (some centres unmarked) [Compound 14] |  |  | 260 |  |  | 
14 | CCOc1cc(/C=N/Nc2nc(N)c3ncn([C@@H]4O[C@H](CO)[C@@H](O)[C@H]4O)c3n2)ccc1O [Compound 16, (2R,3R,4S,5R)-2-{6-amino-2-{2-[(E)-3-ethoxy-4-hydroxybenzylidene]hydrazino}-9H-purin-9-yl}-5-(hydroxymethyl)tetrahydrofuran-3,4-diol] | 3460 | 1620 | 198 |  |  | 
15 | Nc1nc(N/N=C/c2ccc(N3CCOCC3)cc2)nc2c1ncn2[C@@H]1O[C@H](CO)[C@@H](O)[C@H]1O [Compound 17, (2R,3R,4S,5R)-2-{6-amino-2-{2-[(E)-4-morpholinobenzylidene]hydrazino}-9H-purin-9-yl}-5-(hydroxymethyl)tetrahydrofuran-3,4-diol] | 1710 | 800 | 186 |  |  | 
16 | COc1cc(/C=N/Nc2nc(N)c3ncn([C@@H]4O[C@H](CO)[C@@H](O)[C@H]4O)c3n2)cc(OC)c1OC [Compound 18, (2R,3R,4S,5R)-2-{6-amino-2-{2-[(E)-3,4,5-trimethoxybenzylidene]hydrazino}-9H-purin-9-yl}-5-(hydroxymethyl)tetrahydrofuran-3,4-diol] | > 10000 |  | 246 |  |  | 
17 | COc1cc(/C=N/Nc2nc(N)c3ncn([C@@H]4O[C@H](CO)[C@@H](O)[C@H]4O)c3n2)ccc1OCc1ccccc1 [Compound 19, (2R,3R,4S,5R)-2-{6-amino-2-{2-[(E)-4-(benzyloxy)-3-methoxybenzylidene]hydrazino}-9H-purin-9-yl}-5-(hydroxymethyl)tetrahydrofuran-3,4-diol] | 216 | 101 | 146 |  |  | 
